Data published in PubChem BioAssay (NCI).
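Dose response: 5 concentrations. Exposure: 48 h. Format: 96-well plates. Endpoint: linear interpolation; highest concentration if not reached. TGI is the concentration that stops growth completely.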

Key:
Experiment in all cases: NCI anticancer screen, dose series, 48 h
[1] = system: NCI-H226 lung
[2] = system: OVCAR-3 ovarian
[3] = system: HCT-15 colon
[4] = system: SK-OV-3 ovarian
[5] = system: TK-10 renal
[6] = system: M14 melanoma
[7] = system: SK-MEL-28 melanoma
[8] = system: UACC-62 melanoma
[9] = system: HCC-2998 colon
[10] = system: 786-0 renal
[11] = system: SK-MEL-2 melanoma
[12] = system: SNB-19 CNS
[13] = system: UACC-257 melanoma
[14] = system: OVCAR-4 ovarian
[15] = system: SW-620 colon
[16] = system: NCI-H522 lung
[17] = system: A498 renal
[18] = system: U251 CNS
[19] = system: OVCAR-8 ovarian
[20] = system: LOX IMVI melanoma
[21] = system: MCF7 breast
[22] = system: NCI-H460 lung
[23] = system: NCI-H23 lung
[24] = system: HCT-116 colon
[25] = system: RPMI-8226 leukemia
[26] = system: HL-60(TB) leukemia
[27] = system: IGROV1 ovarian
[28] = system: RXF 393 renal
[29] = system: EKVX NSCLC
[30] = system: OVCAR-5 ovarian
[31] = system: SNB-75 CNS
[32] = system: HS 578T breast
[33] = system: KM12 colon
[34] = system: NCI/ADR-RES ovarian
[35] = system: ACHN renal
[36] = system: MALME-3M melanoma
[37] = system: K-562 leukemia
[38] = system: MDA-N
[39] = system: HOP-92 NSCLC
[40] = system: PC-3 prostate
[41] = system: MDA-MB-231 breast
[42] = system: SF-539 CNS
[43] = system: COLO 205 colon
[44] = system: UO-31 renal
[45] = system: SF-295 CNS
[46] = system: BT-549 breast
[47] = system: SR leukemia
[48] = system: CAKI-1 renal
[49] = system: HOP-62 NSCLC
[50] = system: SK-MEL-5 melanoma
[51] = system: MDA-MB-435
[52] = system: MOLT-4 leukemia
[53] = system: CCRF-CEM leukemia
[54] = system: T-47D breast
[55] = system: DU-145 prostate
[56] = system: HT29 colon
[57] = system: SN12C renal
[58] = system: SF-268 CNS
[59] = system: A549 NSCLC

Measured: TGI

[N-]=[N+]=NCC1OC(n2cnc3c(N)ncnc32)C2OC12 (centres undefined)
> 100 µM: all assays above
